{"source": "ChEMBL document CHEMBL1201862", "about": "“PubChem BioAssay data set” (2004)", "key": {"[1]": {"molecular_target": "Peroxisome proliferator-activated receptor gamma/Nuclear receptor coactivator 1 (Homo sapiens, UniProt P37231)", "assay": "(§1) TR-FRET dose response biochemical High Throughput Screening assay for agonists of the steroid receptor coactivator 1 (SRC-1) recruitment by the peroxisome proliferator-activated receptor gamma (PPAR gamma): non-selective agonists. [Related pubchem assays (depositor defined):AID1300, AID1808, AID504735, AID631]", "type": "protein assay"}, "[2]": {"molecular_target": "Peroxisome proliferator-activated receptor gamma/Nuclear receptor coactivator 3 (Homo sapiens, UniProt P37231)", "assay": "as §1, with “3 (SRC-3)” for “1 (SRC-1)”, “assays: 1301 (Confirmation screen.), 1048 (Primary screen.)]” for “assays (depositor defined):AID1300, AID1808, AID504735, AID631]”", "type": "functional"}, "[3]": {"molecular_target": "Peroxisome proliferator-activated receptor gamma/Nuclear receptor coactivator 2 (Homo sapiens, UniProt P37231)", "sequence (P37231 whole entry)": "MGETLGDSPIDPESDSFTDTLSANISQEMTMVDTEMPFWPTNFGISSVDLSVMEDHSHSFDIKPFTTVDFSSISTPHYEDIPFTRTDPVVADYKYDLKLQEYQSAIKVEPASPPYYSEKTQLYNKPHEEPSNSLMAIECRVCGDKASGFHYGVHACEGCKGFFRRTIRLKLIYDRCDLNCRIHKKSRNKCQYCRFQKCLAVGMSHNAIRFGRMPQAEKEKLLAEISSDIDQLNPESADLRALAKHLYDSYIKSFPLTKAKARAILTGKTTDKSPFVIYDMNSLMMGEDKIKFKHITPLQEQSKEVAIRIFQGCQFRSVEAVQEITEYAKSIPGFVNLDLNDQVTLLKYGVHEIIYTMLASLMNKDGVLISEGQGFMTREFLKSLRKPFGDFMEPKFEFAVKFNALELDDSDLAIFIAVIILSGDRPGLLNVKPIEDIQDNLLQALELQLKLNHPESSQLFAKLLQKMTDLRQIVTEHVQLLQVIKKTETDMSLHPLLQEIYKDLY", "sequence (Q15596 whole entry, further chain)": "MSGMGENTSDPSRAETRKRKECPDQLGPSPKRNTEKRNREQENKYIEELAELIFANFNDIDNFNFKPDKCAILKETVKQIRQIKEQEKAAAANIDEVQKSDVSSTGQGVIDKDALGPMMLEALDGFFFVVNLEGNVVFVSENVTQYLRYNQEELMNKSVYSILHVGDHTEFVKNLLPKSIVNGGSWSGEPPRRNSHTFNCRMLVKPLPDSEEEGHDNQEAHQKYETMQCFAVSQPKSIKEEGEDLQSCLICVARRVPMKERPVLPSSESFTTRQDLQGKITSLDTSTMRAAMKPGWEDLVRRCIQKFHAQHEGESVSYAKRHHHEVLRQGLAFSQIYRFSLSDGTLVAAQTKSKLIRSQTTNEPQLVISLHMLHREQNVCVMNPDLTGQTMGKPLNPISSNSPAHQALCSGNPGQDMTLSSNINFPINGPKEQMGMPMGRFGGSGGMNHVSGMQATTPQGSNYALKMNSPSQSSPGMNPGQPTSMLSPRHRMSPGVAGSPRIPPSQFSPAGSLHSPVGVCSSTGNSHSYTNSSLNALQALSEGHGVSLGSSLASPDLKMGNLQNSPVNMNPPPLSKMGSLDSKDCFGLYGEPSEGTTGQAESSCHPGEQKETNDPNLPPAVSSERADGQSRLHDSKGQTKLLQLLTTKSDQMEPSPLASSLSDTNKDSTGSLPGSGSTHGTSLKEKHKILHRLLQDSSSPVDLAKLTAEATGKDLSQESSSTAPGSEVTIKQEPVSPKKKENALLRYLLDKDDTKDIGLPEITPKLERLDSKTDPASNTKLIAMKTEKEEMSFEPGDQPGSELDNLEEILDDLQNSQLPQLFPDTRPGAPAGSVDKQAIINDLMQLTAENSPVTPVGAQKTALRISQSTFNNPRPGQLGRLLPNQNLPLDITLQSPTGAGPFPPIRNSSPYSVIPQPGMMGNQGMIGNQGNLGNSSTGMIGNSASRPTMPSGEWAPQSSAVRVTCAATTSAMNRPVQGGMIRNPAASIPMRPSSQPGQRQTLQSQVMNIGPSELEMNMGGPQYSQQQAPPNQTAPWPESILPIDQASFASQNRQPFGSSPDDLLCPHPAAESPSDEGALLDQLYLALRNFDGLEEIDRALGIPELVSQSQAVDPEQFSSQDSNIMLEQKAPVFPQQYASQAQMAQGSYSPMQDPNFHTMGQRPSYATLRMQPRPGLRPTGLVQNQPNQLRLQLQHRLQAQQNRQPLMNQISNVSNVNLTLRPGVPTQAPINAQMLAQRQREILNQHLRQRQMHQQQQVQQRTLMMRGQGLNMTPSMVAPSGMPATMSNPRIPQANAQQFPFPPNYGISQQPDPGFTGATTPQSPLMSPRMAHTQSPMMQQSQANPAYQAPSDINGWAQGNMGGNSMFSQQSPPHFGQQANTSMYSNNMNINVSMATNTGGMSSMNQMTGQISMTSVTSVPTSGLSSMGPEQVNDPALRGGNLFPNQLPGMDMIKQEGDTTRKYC", "assay": "TR-FRET dose response biochemical High Throughput Screening assay for agonists of the steroid receptor coactivator 2 (SRC-2) recruitment by the peroxisome proliferator-activated receptor gamma (PPAR gamma): non-selective agonists. [Related pubchem assays: 1297, 1032 ]", "type": "functional"}, "[4]": {"molecular_target": "T1, High affinity choline transporter 1 (Homo sapiens, UniProt Q9GZV3)", "T1 sequence (Q9GZV3 whole entry)": "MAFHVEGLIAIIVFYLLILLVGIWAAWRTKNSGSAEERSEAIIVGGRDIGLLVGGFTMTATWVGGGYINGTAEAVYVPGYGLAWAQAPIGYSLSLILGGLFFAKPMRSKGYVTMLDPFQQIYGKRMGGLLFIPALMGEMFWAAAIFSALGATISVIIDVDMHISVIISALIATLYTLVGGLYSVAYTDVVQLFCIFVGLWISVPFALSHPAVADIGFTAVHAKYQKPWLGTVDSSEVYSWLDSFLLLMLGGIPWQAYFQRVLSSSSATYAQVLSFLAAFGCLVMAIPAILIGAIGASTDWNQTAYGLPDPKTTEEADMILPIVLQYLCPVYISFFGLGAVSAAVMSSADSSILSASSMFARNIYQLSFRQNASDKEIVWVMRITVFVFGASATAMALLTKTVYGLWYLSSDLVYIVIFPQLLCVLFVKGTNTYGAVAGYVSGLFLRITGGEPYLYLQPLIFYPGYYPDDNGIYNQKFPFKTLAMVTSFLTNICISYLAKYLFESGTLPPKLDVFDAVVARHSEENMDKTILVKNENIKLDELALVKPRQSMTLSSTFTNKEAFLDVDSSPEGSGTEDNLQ", "assay": "human choline transporter blockers, potency – cell-based, 5-point CRC, membrane potential dye, dose response (AID 504840)", "type": "functional"}, "Coagulation factor XII": {"molecular_target": "T2, Coagulation factor XII (Homo sapiens, UniProt P00748)", "T2 sequence (P00748 whole entry)": "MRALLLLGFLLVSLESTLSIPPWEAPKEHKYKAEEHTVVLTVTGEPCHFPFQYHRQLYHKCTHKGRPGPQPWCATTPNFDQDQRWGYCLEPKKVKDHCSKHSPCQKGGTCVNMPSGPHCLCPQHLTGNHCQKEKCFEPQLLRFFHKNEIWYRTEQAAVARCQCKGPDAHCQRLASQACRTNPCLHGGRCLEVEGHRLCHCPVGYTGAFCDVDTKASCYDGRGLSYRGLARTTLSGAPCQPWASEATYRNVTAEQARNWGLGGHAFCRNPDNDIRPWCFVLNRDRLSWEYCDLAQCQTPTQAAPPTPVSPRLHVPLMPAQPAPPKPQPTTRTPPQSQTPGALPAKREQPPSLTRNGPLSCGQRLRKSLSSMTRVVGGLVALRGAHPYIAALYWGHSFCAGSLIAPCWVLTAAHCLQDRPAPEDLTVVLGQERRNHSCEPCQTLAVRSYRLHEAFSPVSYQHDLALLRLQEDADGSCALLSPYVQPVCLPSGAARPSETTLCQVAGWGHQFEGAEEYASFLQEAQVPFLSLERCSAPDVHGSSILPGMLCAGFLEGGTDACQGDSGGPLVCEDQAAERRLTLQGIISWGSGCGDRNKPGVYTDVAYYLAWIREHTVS", "type": "functional"}, "Cytochrome P450 2C9": {"molecular_target": "Cytochrome P450 2C9 (Homo sapiens, UniProt P11712)", "sequence (P11712 whole entry)": "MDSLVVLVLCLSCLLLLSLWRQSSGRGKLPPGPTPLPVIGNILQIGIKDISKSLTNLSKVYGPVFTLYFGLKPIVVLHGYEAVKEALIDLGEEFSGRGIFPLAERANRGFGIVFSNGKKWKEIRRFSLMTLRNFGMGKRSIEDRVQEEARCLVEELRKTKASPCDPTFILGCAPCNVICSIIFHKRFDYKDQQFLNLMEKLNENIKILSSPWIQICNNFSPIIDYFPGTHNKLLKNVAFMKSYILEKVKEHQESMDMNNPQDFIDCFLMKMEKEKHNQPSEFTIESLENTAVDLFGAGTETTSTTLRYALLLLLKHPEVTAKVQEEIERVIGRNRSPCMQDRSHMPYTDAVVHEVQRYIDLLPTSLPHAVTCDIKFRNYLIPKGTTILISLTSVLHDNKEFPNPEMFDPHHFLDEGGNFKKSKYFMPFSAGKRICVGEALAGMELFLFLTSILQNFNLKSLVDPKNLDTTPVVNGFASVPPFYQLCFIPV"}, "Cytochrome P450 3A4 [5]": {"molecular_target": "T3, Cytochrome P450 3A4 (Homo sapiens, UniProt P08684)", "T3 sequence (P08684 whole entry)": "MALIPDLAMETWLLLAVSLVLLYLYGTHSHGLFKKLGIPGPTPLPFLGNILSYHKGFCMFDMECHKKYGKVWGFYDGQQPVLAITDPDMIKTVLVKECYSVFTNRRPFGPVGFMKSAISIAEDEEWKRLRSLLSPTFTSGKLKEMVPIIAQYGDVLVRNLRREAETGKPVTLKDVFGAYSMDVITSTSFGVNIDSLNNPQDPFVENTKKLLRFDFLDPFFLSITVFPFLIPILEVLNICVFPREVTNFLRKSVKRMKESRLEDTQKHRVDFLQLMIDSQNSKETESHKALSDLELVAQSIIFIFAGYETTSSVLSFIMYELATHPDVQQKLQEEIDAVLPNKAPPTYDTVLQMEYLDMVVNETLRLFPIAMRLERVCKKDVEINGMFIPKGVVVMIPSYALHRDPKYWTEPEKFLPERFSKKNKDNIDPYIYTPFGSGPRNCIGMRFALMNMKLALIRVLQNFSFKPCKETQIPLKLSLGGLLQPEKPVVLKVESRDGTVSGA"}, "[6]": {"molecular_target": "T4, Carboxy-terminal domain RNA polymerase II polypeptide A small phosphatase 1 (Homo sapiens, UniProt Q9GZU7)", "T4 sequence (Q9GZU7 whole entry)": "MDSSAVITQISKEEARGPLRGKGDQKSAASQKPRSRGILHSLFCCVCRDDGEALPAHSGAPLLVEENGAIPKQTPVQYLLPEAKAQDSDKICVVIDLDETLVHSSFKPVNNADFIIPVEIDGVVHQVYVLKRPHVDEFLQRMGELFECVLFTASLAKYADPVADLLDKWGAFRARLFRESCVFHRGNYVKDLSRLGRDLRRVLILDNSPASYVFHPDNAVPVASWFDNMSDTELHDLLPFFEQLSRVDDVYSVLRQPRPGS", "assay": "CTDSP1 inhibitors, concentration-response, biochemical, absorbance readout, ultra-high-throughput screen actives (AID 540297)", "type": "functional"}, "cells [7]": {"assay": "cells", "type": "functional, cell-based"}, "cells [8]": {"assay": "cells", "type": "functional, cell-based", "remark": "listed apart in the source"}, "HEK293 [9]": {"system": "HEK293", "assay": "NOD2 signaling inhibitors in MDP-stimulated cells, cell-based, uHTS, luminescence (AID 2001)", "type": "functional", "conditions": "Homo sapiens"}, "HEK293 [10]": {"system": "HEK293", "assay": "cells", "type": "functional, cell-based", "conditions": "Homo sapiens"}, "HEK293 [11]": {"system": "HEK293", "assay": "cells", "type": "functional, cell-based", "conditions": "Homo sapiens", "remark": "listed apart in the source"}, "HEK293 [12]": {"system": "HEK293", "assay": "inhibition of NOD1-driven NF-kB reporter – cell-based, luminescence, uHTS, primary screen (AID 1578)", "type": "functional", "conditions": "Homo sapiens"}, "Cytochrome P450 2D6": {"molecular_target": "Cytochrome P450 2D6 (Homo sapiens, UniProt P10635)", "sequence (P10635 whole entry)": "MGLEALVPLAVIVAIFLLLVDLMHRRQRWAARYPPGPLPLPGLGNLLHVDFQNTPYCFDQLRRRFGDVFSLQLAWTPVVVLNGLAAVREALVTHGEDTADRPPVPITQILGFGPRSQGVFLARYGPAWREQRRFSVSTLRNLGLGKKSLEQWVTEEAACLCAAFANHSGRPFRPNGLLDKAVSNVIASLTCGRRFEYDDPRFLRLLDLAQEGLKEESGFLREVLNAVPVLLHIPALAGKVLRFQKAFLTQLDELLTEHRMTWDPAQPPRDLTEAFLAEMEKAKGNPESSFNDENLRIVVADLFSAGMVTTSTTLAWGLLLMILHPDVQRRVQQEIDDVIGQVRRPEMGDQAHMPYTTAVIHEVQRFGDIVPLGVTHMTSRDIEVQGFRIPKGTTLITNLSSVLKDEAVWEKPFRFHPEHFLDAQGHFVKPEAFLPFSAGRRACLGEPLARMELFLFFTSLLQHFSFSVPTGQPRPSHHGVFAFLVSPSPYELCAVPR"}, "Cytochrome P450 1A2": {"molecular_target": "T5, Cytochrome P450 1A2 (Homo sapiens, UniProt P05177)", "T5 sequence (P05177 whole entry)": "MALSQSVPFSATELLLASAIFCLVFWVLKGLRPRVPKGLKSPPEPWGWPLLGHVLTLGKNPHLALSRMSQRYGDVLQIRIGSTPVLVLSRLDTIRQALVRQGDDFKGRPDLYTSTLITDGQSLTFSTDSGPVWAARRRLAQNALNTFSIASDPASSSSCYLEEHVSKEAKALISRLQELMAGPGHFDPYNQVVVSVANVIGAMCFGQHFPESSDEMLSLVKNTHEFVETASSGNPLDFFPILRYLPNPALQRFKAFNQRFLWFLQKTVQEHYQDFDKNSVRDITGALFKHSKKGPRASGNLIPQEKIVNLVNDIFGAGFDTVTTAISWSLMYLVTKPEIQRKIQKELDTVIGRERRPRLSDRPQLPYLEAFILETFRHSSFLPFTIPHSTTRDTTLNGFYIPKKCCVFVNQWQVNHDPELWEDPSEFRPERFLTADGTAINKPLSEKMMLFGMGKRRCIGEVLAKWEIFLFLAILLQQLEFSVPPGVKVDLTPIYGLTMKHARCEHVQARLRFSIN"}, "Cytochrome P450 2C19": {"molecular_target": "Cytochrome P450 2C19 (Homo sapiens, UniProt P33261)", "sequence (P33261 whole entry)": "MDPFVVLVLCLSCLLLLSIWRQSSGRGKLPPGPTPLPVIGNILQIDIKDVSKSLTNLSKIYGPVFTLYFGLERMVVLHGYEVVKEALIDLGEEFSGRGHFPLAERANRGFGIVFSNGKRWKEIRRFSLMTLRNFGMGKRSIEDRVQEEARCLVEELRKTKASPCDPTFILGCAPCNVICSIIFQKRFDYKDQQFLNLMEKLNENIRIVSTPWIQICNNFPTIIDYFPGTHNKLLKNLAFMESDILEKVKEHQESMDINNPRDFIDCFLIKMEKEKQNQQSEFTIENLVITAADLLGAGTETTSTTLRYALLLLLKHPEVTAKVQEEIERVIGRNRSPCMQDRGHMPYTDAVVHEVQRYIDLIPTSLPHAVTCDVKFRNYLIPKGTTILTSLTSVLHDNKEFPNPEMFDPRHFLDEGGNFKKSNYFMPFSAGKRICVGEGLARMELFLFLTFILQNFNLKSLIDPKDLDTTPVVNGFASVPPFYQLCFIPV", "assay": "Cytochrome panel assay with activity outcomes. Panel member name: p450-cyp2c19 Compounds with AC50 equal or less than 10 uM are considered active", "type": "functional"}, "Cytochrome P450 3A4 [13]": {"molecular_target": "T3, Cytochrome P450 3A4", "remark": "listed apart in the source"}, "[14]": {"molecular_target": "T6, Heat shock factor protein 1 (Mus musculus, UniProt P38532)", "T6 sequence (P38532 whole entry)": "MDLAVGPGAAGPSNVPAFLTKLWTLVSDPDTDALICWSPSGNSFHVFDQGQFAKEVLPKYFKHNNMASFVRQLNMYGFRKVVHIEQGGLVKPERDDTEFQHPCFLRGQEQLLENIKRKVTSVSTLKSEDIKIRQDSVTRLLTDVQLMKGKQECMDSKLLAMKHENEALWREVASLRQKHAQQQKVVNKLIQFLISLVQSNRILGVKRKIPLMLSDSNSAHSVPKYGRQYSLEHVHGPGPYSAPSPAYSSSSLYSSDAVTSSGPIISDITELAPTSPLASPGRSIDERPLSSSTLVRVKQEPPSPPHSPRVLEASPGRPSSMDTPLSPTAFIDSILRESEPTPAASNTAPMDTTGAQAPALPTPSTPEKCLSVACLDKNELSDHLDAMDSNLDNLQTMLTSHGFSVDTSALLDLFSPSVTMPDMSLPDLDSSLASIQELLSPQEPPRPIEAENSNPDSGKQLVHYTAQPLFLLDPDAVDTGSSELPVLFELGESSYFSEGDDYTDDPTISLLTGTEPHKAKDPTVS", "assay": "enhancement of HSF1-driven luciferase signal – cell-based, NIH3T3, luminescence, dose retest, confirmation (AID 435004)", "type": "functional"}}, "note": "Active and inactive are the calls of the source."}
{"smiles": "COc1ccc(-c2nc(-c3cccs3)c(-c3cccs3)[nH]2)cc1O", "values": [{"measurement": "EC50", "setting": "[1]", "result": "4.8 µM (active)"}, {"measurement": "EC50", "setting": "[2]", "result": "79.6 µM (not active)"}, {"measurement": "EC50", "setting": "[3]", "result": "4.79 µM (active)"}, {"measurement": "IC50", "setting": "[4]", "result": "20 µM (active)"}]}
{"smiles": "COC(=O)c1[nH]c(C)c(C(=O)C2=C(O)C(=O)N(CCN(C)C)C2c2cccc(OC)c2OC)c1C", "note": "(stereo not given)", "values": [{"measurement": "IC50", "setting": "Coagulation factor XII", "result": "> 50 µM (inactive)"}]}
{"smiles": "O=C(NNC(=O)c1cc2cc3ccccc3nc2s1)c1cccc(C(F)(F)F)c1", "values": [{"measurement": "AC50", "setting": "Cytochrome P450 2C9", "result": "inconclusive"}, {"measurement": "AC50", "setting": "Cytochrome P450 3A4 [5]", "result": "1.26 µM (inconclusive)"}, {"measurement": "IC50", "setting": "[6]", "result": "5.86 µM (active)"}]}
{"smiles": "Cn1c(NCCc2ccccc2)cc(=O)n(C)c1=O", "values": [{"measurement": "IC50", "setting": "cells [7]", "result": "> 29.9 µM (inactive)"}, {"measurement": "IC50", "setting": "Coagulation factor XII", "result": "> 50 µM (inactive)"}, {"measurement": "EC50", "setting": "cells [8]", "result": "> 29.9 µM (inactive)"}]}
{"smiles": "CC(=O)NCCNc1nc(-c2ccccc2C)nc2ccccc12", "values": [{"measurement": "AC50", "setting": "Cytochrome P450 2C9", "result": "inconclusive"}]}
{"smiles": "Cc1ccc(C)c(-n2nc3c4c(ccc3c2O)C(=O)c2ccccc2C4=O)c1", "values": [{"measurement": "IC50", "setting": "HEK293 [9]", "result": "18 µM (inactive)"}, {"measurement": "IC50", "setting": "HEK293 [10]", "result": "> 20 µM (inactive)"}, {"measurement": "IC50", "setting": "HEK293 [11]", "result": "> 20 µM (inactive)"}, {"measurement": "EC50", "setting": "HEK293 [12]", "result": "11.1 µM (active)"}]}
{"smiles": "CN(C)Cc1c[nH]c2ncnc(O)c12", "values": [{"measurement": "AC50", "setting": "Cytochrome P450 2D6", "result": "inconclusive"}]}
{"smiles": "Cc1noc(C)c1-c1cc(NC2CCNCC2)ncn1", "values": [{"measurement": "AC50", "setting": "Cytochrome P450 1A2", "result": "126 nM (inconclusive)"}, {"measurement": "AC50", "setting": "Cytochrome P450 2C9", "result": "inconclusive"}, {"measurement": "AC50", "setting": "Cytochrome P450 2C19", "result": "inconclusive"}, {"measurement": "AC50", "setting": "Cytochrome P450 3A4 [13]", "result": "inconclusive"}]}
{"smiles": "CCOC(=O)N1CCC(NS(=O)(=O)c2ccc3c(c2)C(C)(C)C(=O)N3C)CC1", "values": [{"measurement": "AC50", "setting": "Cytochrome P450 2C9", "result": "inconclusive"}, {"measurement": "AC50", "setting": "Cytochrome P450 2C19; read-out: AC50", "result": "11.2 µM (inconclusive)"}, {"measurement": "AC50", "setting": "Cytochrome P450 3A4 [5]", "result": "15.8 µM (inconclusive)"}, {"measurement": "EC50", "setting": "[14]", "result": "> 260 µM (inactive)"}]}
